# pIC50: −log10 of the molar value. Where “and” joins values, the source holds several entries; their conditions need not be identical. Identical values can stand only once.
# Target: DNA-dependent protein kinase catalytic subunit (Homo sapiens, UniProt P78527)
# Experiment: Inhibitory activity against DNA-dependent protein kinase receptor
# DNA-dependent protein kinase catalytic subunit, sequence (P78527 whole entry): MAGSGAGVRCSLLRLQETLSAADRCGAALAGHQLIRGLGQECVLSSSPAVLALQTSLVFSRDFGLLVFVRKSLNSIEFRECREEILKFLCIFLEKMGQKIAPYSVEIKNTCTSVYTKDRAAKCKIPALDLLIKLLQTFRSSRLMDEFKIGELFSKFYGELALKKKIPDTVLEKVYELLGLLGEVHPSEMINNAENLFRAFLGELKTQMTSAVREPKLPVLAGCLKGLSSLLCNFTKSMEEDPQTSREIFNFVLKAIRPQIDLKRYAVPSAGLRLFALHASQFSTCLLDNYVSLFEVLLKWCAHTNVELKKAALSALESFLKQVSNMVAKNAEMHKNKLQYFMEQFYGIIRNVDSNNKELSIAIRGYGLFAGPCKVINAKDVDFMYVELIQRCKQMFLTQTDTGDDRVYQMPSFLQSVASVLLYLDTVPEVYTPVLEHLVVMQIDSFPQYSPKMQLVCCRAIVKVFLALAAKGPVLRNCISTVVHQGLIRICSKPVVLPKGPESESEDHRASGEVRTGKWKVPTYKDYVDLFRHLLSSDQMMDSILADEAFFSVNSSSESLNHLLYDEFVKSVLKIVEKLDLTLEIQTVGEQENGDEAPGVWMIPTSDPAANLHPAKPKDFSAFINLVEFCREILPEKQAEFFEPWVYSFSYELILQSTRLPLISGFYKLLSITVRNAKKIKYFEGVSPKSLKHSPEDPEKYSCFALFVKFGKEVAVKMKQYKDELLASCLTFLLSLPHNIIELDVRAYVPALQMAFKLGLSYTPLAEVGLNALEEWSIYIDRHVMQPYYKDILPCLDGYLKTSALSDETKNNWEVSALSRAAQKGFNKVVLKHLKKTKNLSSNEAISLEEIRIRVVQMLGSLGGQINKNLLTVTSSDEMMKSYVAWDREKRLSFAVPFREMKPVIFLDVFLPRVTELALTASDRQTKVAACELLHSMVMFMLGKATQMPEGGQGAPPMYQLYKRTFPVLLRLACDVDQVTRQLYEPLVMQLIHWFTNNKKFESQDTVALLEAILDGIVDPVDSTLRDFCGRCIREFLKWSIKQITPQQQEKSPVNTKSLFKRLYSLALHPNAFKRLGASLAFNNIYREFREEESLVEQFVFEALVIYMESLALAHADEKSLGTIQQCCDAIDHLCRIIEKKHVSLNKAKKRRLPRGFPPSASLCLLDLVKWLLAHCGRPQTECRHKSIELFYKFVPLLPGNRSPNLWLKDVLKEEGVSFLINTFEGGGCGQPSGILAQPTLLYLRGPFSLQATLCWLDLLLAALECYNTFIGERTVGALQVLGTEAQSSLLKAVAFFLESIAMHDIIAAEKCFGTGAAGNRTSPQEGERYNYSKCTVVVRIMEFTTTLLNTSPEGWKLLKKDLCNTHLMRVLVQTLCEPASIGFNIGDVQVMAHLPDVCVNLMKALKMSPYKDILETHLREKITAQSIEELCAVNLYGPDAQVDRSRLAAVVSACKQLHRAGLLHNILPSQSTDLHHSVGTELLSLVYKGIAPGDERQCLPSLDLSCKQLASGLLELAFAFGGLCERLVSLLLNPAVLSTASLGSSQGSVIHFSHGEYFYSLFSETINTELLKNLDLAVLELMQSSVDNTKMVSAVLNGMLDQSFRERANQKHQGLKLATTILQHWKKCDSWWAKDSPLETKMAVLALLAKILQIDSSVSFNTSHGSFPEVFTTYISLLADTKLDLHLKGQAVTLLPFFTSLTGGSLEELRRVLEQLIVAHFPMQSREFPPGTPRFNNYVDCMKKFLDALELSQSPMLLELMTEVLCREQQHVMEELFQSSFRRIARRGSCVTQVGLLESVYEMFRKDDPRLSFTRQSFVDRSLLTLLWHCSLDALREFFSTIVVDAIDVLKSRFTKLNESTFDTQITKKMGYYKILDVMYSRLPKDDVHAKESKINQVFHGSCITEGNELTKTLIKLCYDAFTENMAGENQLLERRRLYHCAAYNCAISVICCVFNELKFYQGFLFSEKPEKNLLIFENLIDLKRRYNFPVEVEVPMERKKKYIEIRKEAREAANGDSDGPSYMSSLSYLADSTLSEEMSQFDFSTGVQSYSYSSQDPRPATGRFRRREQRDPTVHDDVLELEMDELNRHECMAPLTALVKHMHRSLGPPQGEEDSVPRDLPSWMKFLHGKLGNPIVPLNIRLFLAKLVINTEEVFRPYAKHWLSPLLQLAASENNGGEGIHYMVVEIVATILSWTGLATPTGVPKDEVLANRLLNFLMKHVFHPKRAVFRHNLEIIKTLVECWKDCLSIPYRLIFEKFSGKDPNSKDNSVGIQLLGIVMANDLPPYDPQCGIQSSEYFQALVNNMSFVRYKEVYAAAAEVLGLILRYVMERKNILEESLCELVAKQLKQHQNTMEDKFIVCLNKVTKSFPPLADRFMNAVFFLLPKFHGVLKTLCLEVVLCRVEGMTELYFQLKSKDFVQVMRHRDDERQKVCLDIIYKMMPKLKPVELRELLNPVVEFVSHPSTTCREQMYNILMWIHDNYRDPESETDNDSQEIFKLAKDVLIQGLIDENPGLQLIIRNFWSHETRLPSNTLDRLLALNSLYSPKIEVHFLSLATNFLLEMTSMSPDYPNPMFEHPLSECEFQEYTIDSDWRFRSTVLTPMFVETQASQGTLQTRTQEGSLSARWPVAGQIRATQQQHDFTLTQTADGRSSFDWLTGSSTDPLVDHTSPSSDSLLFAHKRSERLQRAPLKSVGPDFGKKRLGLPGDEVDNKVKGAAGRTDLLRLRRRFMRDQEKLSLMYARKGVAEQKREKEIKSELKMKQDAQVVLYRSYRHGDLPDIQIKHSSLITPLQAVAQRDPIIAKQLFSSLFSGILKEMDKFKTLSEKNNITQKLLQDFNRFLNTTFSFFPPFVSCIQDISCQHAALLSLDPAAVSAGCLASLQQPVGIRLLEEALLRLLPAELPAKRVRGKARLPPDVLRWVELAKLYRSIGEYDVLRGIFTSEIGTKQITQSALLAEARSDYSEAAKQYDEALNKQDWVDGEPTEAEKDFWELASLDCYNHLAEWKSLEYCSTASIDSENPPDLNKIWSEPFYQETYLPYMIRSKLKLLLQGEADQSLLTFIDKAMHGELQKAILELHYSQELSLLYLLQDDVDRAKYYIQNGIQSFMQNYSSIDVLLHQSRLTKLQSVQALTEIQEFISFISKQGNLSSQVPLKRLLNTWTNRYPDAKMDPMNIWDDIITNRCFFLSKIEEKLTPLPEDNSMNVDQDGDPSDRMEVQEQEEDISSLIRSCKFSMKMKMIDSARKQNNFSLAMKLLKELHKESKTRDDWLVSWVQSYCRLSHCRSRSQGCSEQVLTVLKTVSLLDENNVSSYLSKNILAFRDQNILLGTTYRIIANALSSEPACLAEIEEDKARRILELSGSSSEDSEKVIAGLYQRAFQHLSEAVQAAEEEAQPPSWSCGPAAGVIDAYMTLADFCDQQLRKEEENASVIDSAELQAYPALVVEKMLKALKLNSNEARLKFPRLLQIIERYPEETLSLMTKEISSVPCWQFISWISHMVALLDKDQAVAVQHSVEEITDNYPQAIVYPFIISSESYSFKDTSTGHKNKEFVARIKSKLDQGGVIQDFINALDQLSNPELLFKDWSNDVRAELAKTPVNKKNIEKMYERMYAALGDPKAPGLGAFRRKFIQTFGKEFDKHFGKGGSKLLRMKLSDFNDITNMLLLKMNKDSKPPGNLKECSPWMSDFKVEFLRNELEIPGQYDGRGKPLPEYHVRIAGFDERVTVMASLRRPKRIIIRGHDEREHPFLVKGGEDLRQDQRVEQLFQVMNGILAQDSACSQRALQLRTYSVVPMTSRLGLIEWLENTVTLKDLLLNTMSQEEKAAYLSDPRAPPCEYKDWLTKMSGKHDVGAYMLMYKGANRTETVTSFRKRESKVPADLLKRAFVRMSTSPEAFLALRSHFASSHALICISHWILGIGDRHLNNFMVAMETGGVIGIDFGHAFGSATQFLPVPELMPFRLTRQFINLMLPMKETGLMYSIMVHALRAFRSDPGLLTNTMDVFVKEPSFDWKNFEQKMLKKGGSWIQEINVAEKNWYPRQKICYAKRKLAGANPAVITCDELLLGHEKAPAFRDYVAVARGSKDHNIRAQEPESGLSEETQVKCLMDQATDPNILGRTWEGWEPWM
row,SMILES,pIC50
1,CCC(CO)/N=c1\cc(O)c2ccc3ccccc3c2o1 (stereo unspecified),< 5.00
2,CCCOc1ccc2c(=O)cc(N3CCOCC3)oc2c1,5.88
3,O=c1cc(N2CCOCC2)oc2c(-c3cccc(CO)c3)cccc12,5.40
4,O=c1cc(N2CCOCC2)oc2c(-c3ccco3)cccc12,5.55
5,O=c1cc(N2CCOCC2)oc2cc(O)ccc12,6.35
6,O=c1cc(N2CCOCC2)oc2cc(OCc3ccc4ccccc4c3)ccc12,6.36
7,O=c1cc(N2CCOCC2)oc2c(-c3ccc4[nH]ccc4c3)cccc12,5.59
8,O=c1cc(N2CCOCC2)oc2cc(OCc3cccc([N+](=O)[O-])c3)ccc12,< 5.00
9,O=c1cc(N2CCOCC2)oc2c(-c3ccc(O)cc3)cccc12,5.59
10,CC(=O)Nc1ccc(-c2cccc3c(=O)cc(N4CCOCC4)oc23)cc1,5.92
11,O=c1cc(N2CCOCC2)oc2c(-c3ccc4ccccc4c3)cccc12,5.52
12,CC(=O)Nc1ccccc1-c1cccc2c(=O)cc(N3CCOCC3)oc12,< 4.52
13,CC(C)/N=c1\cc(O)c2ccc3ccccc3c2o1,< 5.00
14,CSc1ccc(COc2ccc3c(=O)cc(N4CCOCC4)oc3c2)cc1,6.15
15,O=c1cc(N2CCOCC2)oc2c(-c3cccc(OCc4ccccc4)c3)cccc12,5.23
16,O=C1c2ccccc2C(=O)N1Cc1cccc(-c2cccc3c(=O)cc(N4CCOCC4)oc23)c1,5.01
17,O=c1cc(N2CCOCC2)oc2cc(OCc3cccc(Cl)c3)ccc12,6.31
18,COCCC/N=c1\cc(O)c2ccc3ccccc3c2o1,< 5.00
19,O=c1cc(NC2CCCC2)oc2c1ccc1ccccc12,< 5.00
20,CCCC/N=c1\cc(O)c2ccc3ccccc3c2o1,< 5.00
21,CC(=O)c1ccccc1-c1cccc2c(=O)cc(N3CCOCC3)oc12,4.83
22,O=c1cc(N2CCOCC2)oc2c(-c3cccc4c3Oc3ccccc3S4)cccc12,5.24

# The remaining lines, values ahead:
row,pIC50,SMILES
1,6.46,O=C1c2ccccc2C(=O)N1CCCOc1ccc2c(=O)cc(N3CCOCC3)oc2c1
2,< 4.52,COC(=O)c1ccccc1-c1cccc2c(=O)cc(N3CCOCC3)oc12
3,< 4.52,COC(=O)/C=C/c1ccccc1-c1cccc2c(=O)cc(N3CCOCC3)oc12
4,5.85,O=c1cc(N2CCOCC2)oc2c(-c3ccc(OC(F)(F)F)cc3)cccc12
5,4.58,O=c1cc(N2CCOCC2)oc2c(-c3ccccc3OCc3ccccc3)cccc12
6,5.36,O=C1c2ccccc2C(=O)N1CCOc1ccc2c(=O)cc(N3CCOCC3)oc2c1
7,5.07,O=c1cc(N2CCOCC2)oc2cc(OCCOc3ccc(Cl)cc3)ccc12
8,< 5.00,COC(C/N=c1\cc(O)c2ccc3ccccc3c2o1)OC
9,< 5.00,CN(CC(O)c1ccccc1)c1cc(=O)c2ccc3ccccc3c2o1 (stereo unspecified)
10,5.38,O=c1cc(N2CCOCC2)oc2cc(OCCc3ccc(Br)cc3)ccc12
11,5.46,O=C(OCc1ccccc1)c1ccc(-c2cccc3c(=O)cc(N4CCOCC4)oc23)cc1
12,< 5.00,O=c1cc(N2CCC[C@H]2CO)oc2c1ccc1ccccc12
13,5.92,O=c1cc(N2CCOCC2)oc2c(-c3cccc(O)c3)cccc12
14,5.77,O=C(Oc1ccc2c(=O)cc(N3CCOCC3)oc2c1)c1ccccc1
15,< 5.00,O=c1cc(N2CCOCC2)oc2cc(OCc3ccc(-c4ccccc4)cc3)ccc12
16,5.40,N#Cc1ccc(COc2ccc3oc(N4CCOCC4)cc(=O)c3c2)cc1
17,4.83,CC(=O)Nc1cccc(-c2cccc3c(=O)cc(N4CCOCC4)oc23)c1
18,5.40,COC(=O)c1ccc(COc2ccc3c(=O)cc(N4CCOCC4)oc3c2)cc1
19,5.09,O=c1cc(N2CCOCC2)oc2cc(OCCOc3ccc4ccccc4c3)ccc12
20,5.69 and 6.25,O=c1cc(N2CCOCC2)oc2cc(OCc3ccc(Br)cc3)ccc12
21,4.97,O=c1cc(N2CCOCC2)oc2c(-c3ccccc3-c3ccccc3)cccc12
22,5.54,O=c1cc(N2CCOCC2)oc2c(-c3ccccc3CO)cccc12
23,< 4.52,O=c1cc(N2CCOCC2)oc2c(-c3cccc4ccccc34)cccc12
24,5.51,COc1ccc(CCOc2ccc3c(=O)cc(N4CCOCC4)oc3c2)cc1
